Active and inactive are the calls of the source. The rule behind the calls is not given here. Where only a bound is given, the exact number is not on record here.

Data set [1] in a line: Octanol-water partition coefficient, log P of the compound.
Data set [2] has as its system Rattus norvegicus. The experiment in a line: Antiarrhythmic activity in Wistar rat invasive arterial pressure model assessed as reduction of heart rate at 0.1 mg/kg, iv. Format: functional, organism-based. Further details: dose 0.1 mg/kg.
Data set [3] relates to Rattus norvegicus. The experiment in a line: Antihypertensive activity in Wistar rat invasive arterial pressure model assessed as reduction of diastolic pressure at 1 mg/kg, iv. In kind it is functional, organism-based. Also noted: dose 1 mg/kg. Conditions: Artery.
Data set [4] relates to Rattus norvegicus. The experiment in a line: Antihypertensive activity in Wistar rat invasive arterial pressure model assessed as reduction of systolic pressure at 1 mg/kg, iv. Further details: dose 1 mg/kg. Particulars: Artery. Format: functional, organism-based.
The subject of data set [5] is Rattus norvegicus. The experiment in a line: Antihypertensive activity in Wistar rat invasive arterial pressure model assessed as reduction of diastolic pressure at 0.1 mg/kg, iv. In kind it is functional, organism-based. Also noted: dose 0.1 mg/kg. Particulars: Artery.
The subject of data set [6] is Rattus norvegicus. The experiment in a line: Antihypertensive activity in Wistar rat invasive arterial pressure model assessed as reduction of systolic pressure at 0.1 mg/kg, iv. In kind it is functional, organism-based. Further details: dose 0.1 mg/kg. Conditions: Artery.
Data set [7] concerns Rattus norvegicus. The experiment in a line: Antihypertensive activity in spontaneous hypertensive rat model assessed as reduction of diastolic pressure at 0.1 mg/kg, po after 50 mins. In kind it is functional, organism-based. Also noted: dose 0.1 mg/kg.
The subject of data set [8] is Rattus norvegicus. The experiment in a line: Antihypertensive activity in spontaneous hypertensive rat model assessed as reduction of systolic pressure at 0.1 mg/kg, po after 50 mins. Further details: dose 0.1 mg/kg. Format: functional, organism-based.
Data set [9] concerns Rattus norvegicus. The experiment in a line: Antihypertensive activity in spontaneous hypertensive rat model assessed as reduction of diastolic pressure at 0.1 mg/kg, po after 120 mins. Also noted: dose 0.1 mg/kg. In kind it is functional, organism-based.
Data set [10] has as its system Rattus norvegicus. The experiment in a line: Antihypertensive activity in spontaneous hypertensive rat model assessed as reduction of systolic pressure at 0.1 mg/kg, po after 120 mins. In kind it is functional, organism-based. Also noted: dose 0.1 mg/kg.
For data set [11], the system named is Rattus norvegicus. The experiment in a line: Antiarrhythmic activity in spontaneous hypertensive rat model assessed as reduction of heart rate at 0.1 mg/kg, po after 120 mins. Also noted: dose 0.1 mg/kg. Format: functional, organism-based.
For data set [12], the system named is Rattus norvegicus. The experiment in a line: Antiarrhythmic activity in spontaneous hypertensive rat model assessed as reduction of heart rate at 0.1 mg/kg, po after 40 mins. Format: functional, organism-based. Also noted: dose 0.1 mg/kg.

As to `C[C@H](CS)C(=O)N1CCC[C@H]1C(=O)O` [CAPTOPRIL], in data set [1], the logP (commonly a log measure of how a compound divides between an organic and an aqueous phase) was 1.02.
`CC(C)(C)c1ccc(O)c(CN2CCSCC2)c1`: the outcome in the data set on Rattus norvegicus [2], in the data set on Rattus norvegicus [3] and with Rattus norvegicus [4] was Active. Moreover, the logP in data set [1] is 1.96.
Regarding `CCOC(=O)C1=C(C)NC(C)=C(C(=O)OCC)C1c1cc(CN2CCOCC2)c(O)c(CN2CCOCC2)c1`, the outcome with Rattus norvegicus [5], with Rattus norvegicus [6], in the data set with Rattus norvegicus [2], in the data set with Rattus norvegicus [7], in the data set on Rattus norvegicus [8] and in the data set on Rattus norvegicus [9] was Active. In addition, the result in the data set with Rattus norvegicus [10], with Rattus norvegicus [11] and in the data set with Rattus norvegicus [12] was Active. The compound also displayed a logP in data set [1] of 2.7.
Turning to `CCCCc1nc(Cl)c(CO)n1Cc1ccc(-c2ccccc2-c2nn[nH]n2)cc1` [LOSARTAN], in [1], the log partition coefficient (logP) was 4.01.
Consider `Oc1ccc(Cl)cc1CN1CCSCC1`, for which the outcome in the data set with Rattus norvegicus [2], with Rattus norvegicus [3] and in the data set with Rattus norvegicus [4] was Active. This compound also registered a logP in data set [1] greater than 3.05.
In the case of `CC(C)(C)c1cc(CN2CCSCC2)c(O)c(CN2CCSCC2)c1`, the result with Rattus norvegicus [2], in the data set with Rattus norvegicus [3] and in the data set with Rattus norvegicus [4] was Active. Further, the logP in [1] worked out at 2.03.
